Experimental data: US10577378B2, “EIF4A-inhibiting compounds and methods related thereto” (eFFECTOR Therapeutics, Inc., priority 2015, dated 2020)

System: MDA-MB-231 human breast cancer cells
Experiment: Cell proliferation assay (CellTiter-Glo, 72 hours treatment)
Assay type: cell-based
Conditions: Homo sapiens; MDA-MB-231 cells, 72 hours at 37° C., CellTiter-Glo; read-out: MDA-MB-231 cell proliferation assay (IC50)
Procedure, shortened: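 MDA-MB-231 cells seeded at 2,500 cells/well, treated next day with compound or DMSO vehicle for 72 h at 37 °C. Proliferation read by CellTiter-Glo; IC50 from sigmoidal non-linear regression, binned as +++ (<100 nM), ++ (100–1000 nM), + (>1000 nM).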

Row | SMILES | IC50 [nM]
1 | COc1nc(Cl)cc2c1[C@]1(O)[C@H](O)[C@H](CN3CCC(F)(F)CC3)[C@@H](c3ccccc3)[C@]1(c1ccc(C#N)cc1)O2 (racemic) [157Fb, Rac-4-((5aR,6S,7S,8R,8aS)-3-chloro-7-((4,4-difluoropiperidin-1-yl)methyl)-8,8a-dihydroxy-1-methoxy-6-phenyl-6,7,8,8a-tetrahydro-5aH-cyclopenta[4,5]furo[3,2-c]pyridin-5a-yl)benzonitrile] | 100 to 1000
2 | COc1cncc2c1[C@]1(O)C(CN3CCOCC3)C[C@@H](c3ccccc3)[C@]1(c1ccc(C(F)(F)F)cc1)O2 (mixture of isomers) [289F, Rac-(4bR,7S,7aR)-4-methoxy-5-(morpholinomethyl)-7-phenyl-7a-(4-(trifluoromethyl)phenyl)-5,6,7,7a-tetrahydro-4bH-cyclopenta[4,5]furo[2,3-c]pyridin-4b-ol] | 100 to 1000
3 | COc1nc(Cl)cc2c1[C@]1(O)[C@H](O)[C@H](CN(C)C)[C@@H](c3ccccc3)[C@]1(c1ccc(Br)cc1)O2 (racemic) [138F, Rac-(5aR,6S,7S,8R,8aS)-5a-(4-bromophenyl)-3-chloro-7-((dimethylamino)methyl)-1-methoxy-6-phenyl-5a,6,7,8-tetrahydro-8aH-cyclopenta[4,5]furo[3,2-c]pyridine-8,8a-diol] | < 100
4 | COc1nc(C#N)cc2c1[C@]1(O)[C@H](O)[C@H](CN3CC(F)(F)C3)[C@@H](c3ccccc3)[C@]1(c1ccc(C#N)cc1)O2 (racemic) [207Fa, Rac-(5aR,6S,7S,8R,8aS)-5a-(4-cyanophenyl)-7-((3,3-difluoroazetidin-1-yl)methyl)-8,8a-dihydroxy-1-methoxy-6-phenyl-5a,7,8,8a-tetrahydro-6H-cyclopenta[4,5]furo[3,2-c]pyridine-3-carbonitrile] | 100 to 1000
5 | N#Cc1ccc([C@@]23Oc4cc(Cl)cnc4[C@]2(O)[C@H](O)[C@H](C(N)=O)[C@H]3c2ccccc2)cc1 (single isomer, unassigned) [18F] | < 100
6 | N#Cc1ccc([C@@]23Oc4cc(Cl)cnc4[C@]2(O)[C@H](O)[C@@H](CN2CCCC2)[C@H]3c2ccccc2)cc1 (racemic) [41Fa, Rac-4-((5aR,6S,7R,8R,8aS)-3-chloro-8,8a-dihydroxy-6-phenyl-7-(pyrrolidin-1-ylmethyl)-6,7,8,8a-tetrahydro-5aH-cyclopenta[4,5]furo[3,2-b]pyridin-5a-yl)benzonitrile] | > 1000
7 | CN(C)C(=O)[C@@]12C[C@@H]1[C@@]1(O)c3ncc(Cl)cc3O[C@@]1(c1ccc(C#N)cc1)[C@@H]2c1ccccc1 (racemic) [31F, Rac-(5aR,6R,6aS,7aS,7bR)-3-chloro-5a-(4-cyanophenyl)-7b-hydroxy-N,N-dimethyl-6-phenyl-5a,7,7a,7b-tetrahydrocyclopropa[4′,5′]cyclopenta[1′,2′:4,5]furo[3,2-b]pyridine-6a(6H)-carboxamide] | > 1000
8 | COc1cncc2c1[C@]1(O)[C@@H](CN3CCN(C)CC3)[C@H](CO)[C@@H](c3ccccc3)[C@]1(c1ccc(C#N)cc1)O2 (racemic) [184F, Rac-4-((4bR,5R,6R,7S,7aR)-4b-hydroxy-6-(hydroxymethyl)-4-methoxy-5-((4-methyl-piperazin-1-yl)methyl)-7-phenyl-4b,5,6,7-tetrahydro-7aH-cyclopenta[4,5]furo[2,3-c]pyridin-7a-yl)benzonitrile] | < 100
9 | CN(C)C(=O)[C@@H]1[C@@H](c2ccccc2)[C@]2(c3ccc(C#N)cc3)Oc3cc(Cl)cnc3[C@]2(O)[C@]1(C)O (racemic) [33Fa, Rac-(5aR,6S,7R,8R,8aS)-3-chloro-5a-(4-cyanophenyl)-8,8a-dihydroxy-N,N,8-trimethyl-6-phenyl-5a,7,8,8a-tetrahydro-6H-cyclopenta[4,5]furo[3,2-b]pyridine-7-carboxamide] | 100 to 1000
10 | COc1cncc2c1[C@]1(O)[C@H](O)[C@H](CN(C)Cc3ccnn3C)[C@@H](c3ccccc3)[C@]1(c1ccc(C#N)cc1)O2 (single isomer, unassigned) [250F] | > 1000
11 | COc1cncc2c1[C@]1(O)[C@H](O)[C@H](C(=O)N(C)Cc3ccnn3C)[C@@H](c3ccccc3)[C@]1(c1ccc(Br)cc1)O2 (racemic) [249F, Rac-(4bS,5R,6R,7S,7aR)-7a-(4-bromophenyl)-4b,5-dihydroxy-4-methoxy-N-methyl-N-((1-methyl-1H-pyrazol-5-yl)methyl)-7-phenyl-4b,6,7,7a-tetrahydro-5H-cyclopenta[4,5]furo[2,3-c]pyridine-6-carboxamide] | < 100
12 | COc1nc(Cl)cc2c1[C@]1(O)[C@H](O)[C@H](CN)[C@@H](c3ccccc3)[C@]1(c1ccc(C#N)cc1)O2 (racemic) [294F, Rac-4-((5aR,6S,7S,8R,8aS)-7-(aminomethyl)-3-chloro-8,8a-dihydroxy-1-methoxy-6-phenyl-6,7,8,8a-tetrahydro-5aH-cyclopenta[4,5]furo[3,2-c]pyridin-5a-yl)benzonitrile] | < 100
13 | COc1cncc2c1[C@]1(O)[C@@H](CNCc3ccnn3C)[C@H](CO)[C@@H](c3ccccc3)[C@]1(c1ccc(C#N)cc1)O2 (racemic) [204F, Rac-4-((4bR,5R,6R,7S,7aR)-4b-hydroxy-6-(hydroxymethyl)-4-methoxy-5-((((1-methyl-1H-pyrazol-5-yl)methyl)amino)methyl)-7-phenyl-4b,5,6,7-tetrahydro-7aH-cyclopenta[4,5]furo[2,3-c]pyridin-7a-yl)benzonitrile] | < 100
14 | COc1cncc2c1[C@]1(O)[C@H](O)[C@H](C(=O)N(C)CC(F)F)[C@@H](c3ccccc3)[C@]1(c1ccc(Br)cc1)O2 (racemic) [111F, Rac-(4bS,5R,6R,7S,7aR)-7a-(4-bromophenyl)-N-(2,2-difluoroethyl)-4b,5-dihydroxy-4-methoxy-N-methyl-7-phenyl-4b,6,7,7a-tetrahydro-5H-cyclopenta[4,5]furo[2,3-c]pyridine-6-carboxamide] | < 100
15 | CN(C)C[C@H]1[C@@H](C#N)[C@@]2(O)c3ncc(Cl)cc3O[C@@]2(c2ccc(C#N)cc2)[C@@H]1c1ccccc1 (racemic) [228F, Rac-(5aR,6S,7R,8S,8aR)-3-chloro-5a-(4-cyanophenyl)-7-((dimethylamino)methyl)-8a-hydroxy-6-phenyl-5a,7,8,8a-tetrahydro-6H-cyclopenta[4,5]furo[3,2-b]pyridine-8-carbonitrile] | > 1000
16 | COc1nc(C#N)cc2c1[C@]1(O)[C@H](O)[C@H](CN)[C@@H](c3ccccc3)[C@]1(c1ccc(C#N)cc1)O2 (racemic) [293F, Rac-(5aR,6S,7S,8R,8aS)-7-(aminomethyl)-5a-(4-cyanophenyl)-8,8a-dihydroxy-1-methoxy-6-phenyl-5a,7,8,8a-tetrahydro-6H-cyclopenta[4,5]furo[3,2-c]pyridine-3-carbonitrile] | < 100
17 | COc1cncc2c1[C@]1(O)[C@@H](CNC3COC3)[C@H](CO)[C@@H](c3ccccc3)[C@]1(c1ccc(Br)cc1)O2 (racemic) [185F, Rac-(4bR,5R,6R,7S,7aR)-7a-(4-bromophenyl)-6-(hydroxymethyl)-4-methoxy-5-((oxetan-3-ylamino)methyl)-7-phenyl-5,6,7,7a-tetrahydro-4bH-cyclopenta[4,5]furo[2,3-c]pyridin-4b-ol] | < 100
18 | COC[C@H]1[C@@H](O)[C@@]2(O)c3ncc(Cl)cc3O[C@@]2(c2ccc(Br)cc2)[C@@H]1c1ccccc1 (racemic) [62F, rac-(5aR,6S,7S,8R,8aS)-5a-(4-bromophenyl)-3-chloro-7-(methoxymethyl)-6-phenyl-5a,6,7,8-tetrahydro-8aH-cyclopenta[4,5]furo[3,2-b]pyridine-8,8a-diol] | 100 to 1000
